Molecular target: Platelet-activating factor receptor (Oryctolagus cuniculus)
Assay: Inhibition of PAF receptor binding to rabbit platelet plasma membranes

Row | SMILES | IC50 [nM]
1 | COc1ccc(C2CC[C@H](c3ccc(OC)c(OC)c3)O2)cc1OC (some centres not stated) | > 3000
2 | COc1ccc([C@H]2CC[C@H](c3ccc(OC)c(OC)c3)O2)cc1OC | 500

Reference: BindingDB's records for doi:10.1021/jm00160a020 (1986)
